Bridge positions count the residues as written; N and C are the ends. Square brackets hold non-standard residues; d marks the D form. Peptide text beside a SMILES is read from it. R8 = C=CCCCCCC[C@@](C)(N)C(=O)O; S5 = C=CCCC[C@](C)(N)C(=O)O; Nle = CCCC[C@H](N)C(=O)O
B1: SP-9 (peptide)
peptide: Ac-AIDEEVL[Nle][S5]LVI[S5][Nle]ALDRI-NH2
modifications: staple 9-13
SMILES: CCCC[C@H](NC(=O)[C@H](CC(C)C)NC(=O)[C@@H](NC(=O)[C@H](CCC(=O)O)NC(=O)[C@H](CCC(=O)O)NC(=O)[C@H](CC(=O)O)NC(=O)[C@@H](NC(=O)[C@H](C)NC(C)=O)[C@@H](C)CC)C(C)C)C(=O)N[C@@]1(C)CCCC=CCCC[C@@](C)(C(=O)N[C@@H](CCCC)C(=O)N[C@@H](C)C(=O)N[C@@H](CC(C)C)C(=O)N[C@@H](CC(=O)O)C(=O)N[C@@H](CCCNC(=N)N)C(=O)N[C@H](C(N)=O)[C@@H](C)CC)NC(=O)[C@H]([C@@H](C)CC)NC(=O)[C@H](C(C)C)NC(=O)[C@H](CC(C)C)NC1=O
B2: SP-10 (peptide)
peptide: Ac-FADEEVL[Nle][S5]LVI[S5][Nle]ALDRI-NH2
modifications: staple 9-13
SMILES: CCCC[C@H](NC(=O)[C@H](CC(C)C)NC(=O)[C@@H](NC(=O)[C@H](CCC(=O)O)NC(=O)[C@H](CCC(=O)O)NC(=O)[C@H](CC(=O)O)NC(=O)[C@H](C)NC(=O)[C@H](Cc1ccccc1)NC(C)=O)C(C)C)C(=O)N[C@@]1(C)CCCC=CCCC[C@@](C)(C(=O)N[C@@H](CCCC)C(=O)N[C@@H](C)C(=O)N[C@@H](CC(C)C)C(=O)N[C@@H](CC(=O)O)C(=O)N[C@@H](CCCNC(=N)N)C(=O)N[C@H](C(N)=O)[C@@H](C)CC)NC(=O)[C@H]([C@@H](C)CC)NC(=O)[C@H](C(C)C)NC(=O)[C@H](CC(C)C)NC1=O
B3: SP-11 (peptide)
peptide: Ac-FIAEEVL[Nle][S5]LVI[S5][Nle]ALDRI-NH2
modifications: staple 9-13
SMILES: CCCC[C@H](NC(=O)[C@H](CC(C)C)NC(=O)[C@@H](NC(=O)[C@H](CCC(=O)O)NC(=O)[C@H](CCC(=O)O)NC(=O)[C@H](C)NC(=O)[C@@H](NC(=O)[C@H](Cc1ccccc1)NC(C)=O)[C@@H](C)CC)C(C)C)C(=O)N[C@@]1(C)CCCC=CCCC[C@@](C)(C(=O)N[C@@H](CCCC)C(=O)N[C@@H](C)C(=O)N[C@@H](CC(C)C)C(=O)N[C@@H](CC(=O)O)C(=O)N[C@@H](CCCNC(=N)N)C(=O)N[C@H](C(N)=O)[C@@H](C)CC)NC(=O)[C@H]([C@@H](C)CC)NC(=O)[C@H](C(C)C)NC(=O)[C@H](CC(C)C)NC1=O

Experiments:
[1] = target: T1, flag-tagged HIF1α (AA 786-826) / His6-tagged p300 (AA 323-423) complex (Homo sapiens, UniProt Q09472); experiment: HIF1α p300 displacement assay (TR FRET, +CHAPS); assay type: binding; settings: read-out: IC50 (nM) (HIF1α_p300 Displacement + CHAPS)
T1 construct: His6-tagged p300 (AA 323-423); made in house; host or cells: E. coli (pETDuet vector)
In short: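 In this TR-FRET displacement format, peptides compete HIF1α C-terminal transactivation domain off p300-CH. They were preincubated 1 h at room temperature with 300 nM complex in HEPES pH 7.4/NaCl buffer with 7.5 mM CHAPS and 1 mM DTT. Anti-His-D2 (4 nM) and anti-Flag-K (0.5 μM) followed for 2 h, and a one-site fit of the fluorescence ratio gave IC50.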

HRE-bla ME-180 cells [2] = experiment: Cell proliferation assay (viability, MTT, 1% FBS); assay type: cell-based, human
In short: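 Viable cell number was measured with the CellTiter 96 (MTT) kit after compounds were applied for a 16 h normoxic (21% O2) pretreatment, followed by further normoxic or hypoxic (1% O2) culture. Cells: 2×10^4 ME-180 per well, Opti-MEM + 1% FBS, 0.5% DMSO vehicle.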

HRE-bla ME-180 cells [3] = experiment: Reporter gene assay (HRE-bla ME-180 HIF reporter, GeneBLAzer); assay type: cell-based, human; settings: for EC50: 24 hour normoxia
In short: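 A FRET β-lactamase readout of HIF transcription was used. After compound treatment in 0.3% DMSO/media under normoxic conditions, 20 μl of 6× LiveBLAzer-FRET B/G (CCF4-AM) substrate was added. Plates sat 3 hr at room temperature in the dark and were read at 409 Ex/460Em and 409Ex/530Em on a Synergy 2. Inhibition was compared against DMSO vehicle controls, with chetomin as positive control.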

[4] = target: T2, His6-tagged p300 (AA 323-423) (UniProt Q09472 323-423); experiment: TR-FRET HIF1a/p300 displacement; grade = IC50 >700 nM
T2 construct: range 323-423; also called p300-CH; not shown: His6 tag
T2 sequence (Q09472 323-423 limits assumed): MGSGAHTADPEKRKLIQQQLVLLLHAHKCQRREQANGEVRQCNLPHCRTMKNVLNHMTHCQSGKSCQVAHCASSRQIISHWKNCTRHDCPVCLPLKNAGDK
Experimental: The ability of peptides to displace HIF1α c-terminal trans-activation domain from p300-CH was measured by a TR FRET assay. […] The complex was diluted to 300 nM final in complete assay media and competitor peptides were added. The complete assay media contained 150 mM NaCl (Sigma +S5150 or equivalent), 20 mM HEPES pH 7.4 (Boston Bioproducts, Ashland, Mass.; #BB-2076), 7.5 mM CHAPS (Thermo #28300 or equivalent), and 1 mM DTT. Protein and peptide were incubated at room temperature for 1 hour before the addition of anti-Flag-K and anti-6×HIS-D2 (CisBio, Bedford Mass.) HTRF reconstitution buffer (50 mM Phosphate pH 7, 0.8 Potassium Flouride, BSA 0.2%)¹ to a final concentration of 0.5 μM and 4 nM respectively. The reaction continued for an additional two hours at room temperature. The reaction was read on a TECAN F500 plate reader with settings recommended by CisBio. The ratio of donor to acceptor fluorescence was calculated. The resulting data was analyzed with Graphpad Prism 5.0. IC50 values were calculated for both proteins using the One Site Fit-LogIC50 equation and presented in the column “IC₅₀ (nM) (HIF1α_p300 Displacement+CHAPS)” of Table 6. ¹ Cisbio USA, Bedford, Mass.; 61HISDLB (lot 007A), 61FG2KLB (024A), HTRF Buffer (62RB3RDF)

| Molecule | IC50 [1] [nM] | Viability 1% FBS AVG (MTT V3-24 hr Normoxia) (μM) (HRE-bla ME-180 cells [2]) | 18 h Avg % max inhibition at top conc (HIF Rptr-24 hrs normoxia) (μM) (HRE-bla ME-180 cells [3]) | EC50 (HRE-bla ME-180 cells [3]) [µM] | IC50 [4] [nM] |
| --- | --- | --- | --- | --- | --- |
| CCCC[C@@H]1NC(=O)[C@H](CC(C)C)NC(=O)[C@](C)(NC(=O)[C@H](CCC(=O)O)NC(=O)[C@H](CCC(=O)O)NC(=O)[C@H](CC(=O)O)NC(=O)[C@@H](NC(=O)[C@H](Cc2ccccc2)NC(C)=O)[C@@H](C)CC)CCCCCCC=CCCC[C@@](C)(C(=O)N[C@@H](CCCC)C(=O)N[C@@H](C)C(=O)N[C@@H](CC(C)C)C(N)=O)NC(=O)[C@H]([C@@H](C)CC)NC(=O)[C@H](C(C)C)NC(=O)[C@H](CC(C)C)NC(=O)[C@H](CO)NC1=O [SP-199] (Ac-FIDEE[R8]L[Nle]SLVI[S5][Nle]AL-NH2; staple 6-13) | 200 to 400 | ++++ (≥30: ++++) | + (<10: +) | > 30 | – |
| CCCC[C@H](NC(=O)[C@H](CCC(=O)O)NC(=O)[C@@H](NC(=O)[C@@H](NC(=O)[C@H](CC(C)C)NC(=O)[C@]1(C)CCCC=CCCC[C@](C)(NC(=O)[C@H](C)NC(=O)[C@H](CC(=O)O)NC(=O)[C@@H](NC(=O)[C@H](Cc2ccccc2)NC(C)=O)[C@@H](C)CC)C(=O)N[C@@H](C(C)C)C(=O)N[C@@H](CC(C)C)C(=O)N[C@@H](CCCC)C(=O)N1)C(C)C)[C@@H](C)CC)C(=O)N[C@@H](C)C(=O)N[C@@H](CC(C)C)C(N)=O [SP-148] (Ac-FIDA[S5]VL[Nle][S5]LVIE[Nle]AL-NH2; staple 5-9) | > 700 | ++++ (≥30: ++++) | +++ (≤25 but <50: +++) | > 30 | – |
| CCCC[C@@H]1NC(=O)[C@H](CC(C)C)NC(=O)[C@H]([C@@H](C)O)NC(=O)[C@@](C)(NC(=O)[C@H](CCC(=O)O)NC(=O)[C@H](CC(=O)O)NC(=O)[C@@H](NC(=O)[C@H](Cc2ccccc2)NC(C)=O)[C@@H](C)CC)CCCC=CCCCC2(CCCC=CCCC[C@](C)(C(=O)N[C@@H](CCCC)C(=O)N[C@@H](C)C(=O)N[C@@H](CC(C)C)C(N)=O)NC(=O)[C@H]([C@@H](C)CC)NC(=O)[C@H](C(C)C)NC(=O)[C@H](CC(C)C)NC2=O)NC1=O (stereo partly drawn) [SP-207] | ≤ 200 | ++++ (≥30: ++++) | + (<10: +) | > 30 | – |
| CCCC[C@H](NC(=O)[C@H](CCC(=O)O)NC(=O)[C@@H](NC(=O)[C@]1(C)CCCC=CCCC[C@](C)(NC(=O)[C@@H](NC(=O)[C@H](CCC(=O)O)NC(=O)[C@H](CCC(=O)O)NC(=O)[C@H](CC(=O)O)NC(=O)[C@@H](NC(=O)[C@H](CC(N)=O)NC(=O)[C@@H](NC(=O)[C@]2(C)CCCC=CCCCCCC[C@@](C)(NC(=O)[C@H](CCC(=O)O)NC(=O)CNC(=O)[C@H](CCC(N)=O)NC(=O)[C@H](CC(C)C)NC(=O)[C@H](CC(C)C)NC(C)=O)C(=O)N[C@@H](CC(C)C)C(=O)N[C@@H](CC(C)C)C(=O)N[C@@H](CCCNC(=N)N)C(=O)N[C@@H](C)C(=O)N[C@@H](CC(C)C)C(=O)N[C@@H](CC(=O)O)C(=O)N2)C(C)C)[C@@H](C)CC)C(C)C)C(=O)N[C@@H](CCCC)C(=O)N[C@@H](CO)C(=O)N[C@@H](CC(C)C)C(=O)N1)[C@@H](C)CC)C(=O)NCC(N)=O [SP-305] (Ac-LLQGE[R8]LLRALD[S5]VNIDEEV[S5][Nle]SL[S5]IE[Nle]G-NH2; staple 6-13, 21-25) | ≤ 200 | ++++ (≥30: ++++) | ++++ (≥50: ++++) | > 30 | – |
| CCCC[C@H](NC(=O)[C@H](CCC(=O)O)NC(=O)[C@@H](NC(=O)[C@@H](NC(=O)[C@H](CC(C)C)NC(=O)[C@]1(C)CCCC=CCCC[C@](C)(NC(=O)[C@H](CCC(=O)O)NC(=O)[C@H](CC(=O)O)NC(=O)[C@@H](NC(=O)[C@H](Cc2ccccc2)NC(C)=O)[C@@H](C)CC)C(=O)N[C@@H](CC(N)=O)C(=O)N[C@@H](CC(C)C)C(=O)N[C@@H](CCCC)C(=O)N1)C(C)C)[C@@H](C)CC)C(=O)N[C@@H](C)C(=O)N[C@@H](CC(C)C)C(N)=O [SP-141] (Ac-FIDE[S5]NL[Nle][S5]LVIE[Nle]AL-NH2; staple 5-9) | 400 to 700 | ++ (≤5 but <15: ++) | ++++ (≥50: ++++) | 15 to 30 | – |
| CCCC[C@H](NC(=O)[C@H](Cc1ccccc1)NC(=O)[C@@H](NC(=O)[C@H](CCC(N)=O)NC(=O)[C@H](CCC(N)=O)NC(=O)[C@H](CC(N)=O)NC(=O)[C@@H](NC(=O)[C@H](Cc1ccccc1)NC(C)=O)[C@@H](C)CC)C(C)C)C(=O)N[C@@]1(C)CCCC=CCCC[C@@](C)(C(=O)N[C@@H](CCCC)C(=O)N[C@@H](C)C(=O)N[C@@H](CC(C)C)C(=O)N[C@@H](CC(C)C)C(N)=O)NC(=O)[C@H]([C@@H](C)CC)NC(=O)[C@H](C(C)C)NC(=O)[C@H](CC(C)C)NC1=O [SP-248] (Ac-FINQQVF[Nle][S5]LVI[S5][Nle]ALL-NH2; staple 9-13) | > 700 | ++++ (≥30: ++++) | +++ (≤25 but <50: +++) | > 30 | – |
| B1 | – | – | – | – | > 700 |
| B2 | – | – | – | – | > 700 |
| B3 | – | – | – | – | > 700 |

Source: patent publication US20190225650A1, “PEPTIDOMIMETIC MACROCYCLES AND USE THEREOF IN REGULATING HIF1ALPHA” (AILERON THERAPEUTICS, INC., priority 2013, published 2019)
